Measurements: patent EP1028734B1, “USE OF SPECIFIC STEADY-STATE R-TYPE CALCIUM CHANNEL BLOCKERS” (priority 1997, dated 1999)
Read-outs that look alike come from different tables or passages of the source.

Columns and labels:
[1] = test system: R-type Ca^2+ channel; test: block of R-type Ca2+ channel (data not shown); type: cell-based
[2] = tail-flick in mice; type: in vivo; conditions: i.p.
Text: (§1) The antinociceptive actions of compound MV 8612 and MV 8608 were investigated in different models of nociception in mice as reported previously (Vaz et al., 1996, J. Pharmacol. Exp. Ther. 278:304-312).

[3] = writhe responses in mice (acetic acid, acetylcholine, kaolin); type: in vivo; conditions: i.p., mice; for ID50 ACETYLCHOLINE: acetylcholine-induced writhes; for ID50 KAOLIN: kaolin-induced writhes
Text: as §1

[4] = test system: fast Na^+ channel; test: block of fast Na+ channel (data not shown); type: cell-based; conditions: read-out: ED50, fast Na^+ channel
[5] = test system: human osteoblast cancer lines (MG63 and FAOS-2); test: spontaneous proliferation of human osteoblast cancer lines; type: cell-based; conditions: Lomir/Dynacirc 10^-8M, nifedipine 10^-6M, non published results
[6] = organ (allograft) transplant with cyclosporin A treatment, ET-1, blood flow, hypertension; type: in vivo, rabbit
[7] = anaesthetized rat, blood pressure, PAF challenge; type: in vivo; conditions: results not shown
Text: (§2) On the other hand, in vivo administered PAF, induced a marked hypotension in the anaesthetized rat and guinea pig.

[8] = La Civita et al., 1996; cited from earlier work
[9] = anaesthetized guinea pig, blood pressure and bronchoconstriction, PAF challenge; type: in vivo
Text: as §2

[10] = cited from earlier work
[11] = transplant patients, Berg et al., 1991

COc1ccc([C@@H]2Sc3cc(Cl)ccc3N(CCN(C)C)C(=O)[C@@H]2OC(C)=O)cc1 [Clentiazem]
block of the R-type Ca^2+ by L-type Ca^2+ channel blockers [1]: none were found to block

COc1ccc(CCN(C)CCCC(C#N)(c2cc(OC)c(OC)c(OC)c2)C(C)C)cc1OC (stereo not shown) [D600]
block of the R-type Ca^2+ by L-type Ca^2+ channel blockers [1]: none were found to block

COc1cccc(CCN(C)CCCC(C#N)(c2ccc(OC)c(OC)c2)C(C)C)c1 (stereo not shown) [D888]
block of the R-type Ca^2+ by L-type Ca^2+ channel blockers [1]: none were found to block

COc1ccc([C@@H]2Sc3ccccc3N(CCN(C)C)C(=O)[C@@H]2OC(C)=O)cc1 [Diltiazem]
block of the R-type Ca^2+ by L-type Ca^2+ channel blockers [1]: none were found to block

COc1ccc2c(c1)c(CC(=O)O)c(C)n2C(=O)c1ccc(Cl)cc1 [INDOMETHACIN, indomethacin]
ID50 TAIL-FLICK [2]: no effect | ID50 ACETIC ACID ([3]; acetic acid-induced writhes): 1.2 (0.9-1.4) µmol/kg | ID50 ACETYLCHOLINE [3]: 0.8 (0.5-1.0) µmol/kg | ID50 KAOLIN [3]: 1.6 (1.4-1.8) µmol/kg

CN1CC[C@]23c4c5ccc(O)c4O[C@H]2[C@@H](O)C=C[C@H]3[C@H]1C5 [MORPHINE, morphine]
ID50 TAIL-FLICK [2]: 6.0(5.7-6.4) µmol/kg | ID50 ACETYLCHOLINE [3]: 1.4 (1.0-1.8) µmol/kg | ID50 KAOLIN [3]: 1.4 (1.2-1.7) µmol/kg

COc1ccc(CCN(C)CCCC(C#N)(c2ccc(OC)c(OC)c2)C(C)C)cc1OC (stereo not shown) [Verapamil]
block of the R-type Ca^2+ by L-type Ca^2+ channel blockers [1]: none were found to block

COC(=O)C1=C(C)NC(C)=C(C(=O)OC(C)C)C1c1cccc2nonc12 (stereo not shown) [isradipine]
EC50 [4]: ~10 µM | spontaneous cell proliferation [5]: reduced | elevated circulating endothelin level induced with the Sandimmune drugs ([6]; data not shown): blocks | hypertension and ET-1 plasma elevation associated with cyclosporin A treatment in allograft transplant ([6]; non published results): blocked | increase of circulating ET-1 and decrease of blood flow in organ transplants ([6]; rabbit, cyclosporin-A treated and transplanted animals): restored | intrinsic hypotensive properties [7]: marked intrinsic hypotensive properties | elevated plasma concentration of ET-1 level, frequency, severity of acute attacks of Raynaud's phenomenon [8]: significantly reduced | intrinsic (hypotensive) effect [9]: marked intrinsic hypotensive properties | filtration fraction ([10]; 3-month study, Grossman et al. 1991): remained constant | filtration fraction [10, 11]: reduced | renal blood flow [10, 11]: increased

COC(=O)C1=C(C)NC(C)=C(C(=O)OC)C1c1ccccc1[N+](=O)[O-] [nifedipine]
intrinsic hypotensive properties [7]: marked intrinsic hypotensive properties | intrinsic (hypotensive) effect [9]: marked intrinsic hypotensive properties
